{"source": "patent US10125116B2", "about": "“Compounds and methods for treating mammalian gastrointestinal microbial infections” (Brandeis University, priority 2009, dated 2018)", "key": {"T. gondii-CpIMPDH": {"system": "T. gondii-CpIMPDH", "experiment": "T. gondii-CpIMPDH fluorescence growth assay", "type": "cell-based, Toxoplasma gondii"}, "HCT-8 cells": {"system": "HCT-8 cells", "experiment": "fluorescent HCT-8 host cell growth assay", "type": "cell-based, human", "text": "The differentiation of selective antiparasitic effects from those that are a secondary consequence of a host cell effect is a critical issue in drug discovery for intracellular parasites. Cytotoxicity assays commonly reflect plasma membrane integrity, and are a crude measure of host cell effects—it is conceivable that more subtle perturbations of host cell metabolism can have an adverse effect on parasite proliferation. Therefore we sought to develop a simple and inexpensive assay of host cell growth. The human ileocecal adenocarcinoma epithelial cell line, HCT-8, which is commonly used to maintain C. parvum infection in tissue culture, was engineered to constitutively express a green fluorescent protein (GFP). Growth of this cell line was monitored daily using a fluorescent plate reader. […] These experiments validate the use of the fluorescent HCT-8 cell growth assay.\nHCT-8 cells were transfected with the pmaxGFP plasmid (Amaxa) using Lipofectamine (Invitrogen) following the manufactures instruction. Fluorescent lines were then selected and cloned using FACS. Confluent monolayers of pmaxGFP expressing cells were harvested from T75 flasks and passed through a 40 μm cell strainer. Cells were then seeded at 4000 cells per well in a volume of 200 μL into black, optical quality, thin bottom, 96-well plates (DB Falcon). All test compounds were diluted in DMSO to prepare a 200× working stock for each dilution. Appropriate wells were spiked with 1 μl such that the final concentration of DMSO was 0.5%. The fluorescence was read daily with a SpectraMax M22/M2e (Molecular Devices) plate reader (Ex 485, Em 530) for 6-7 days. The percent inhibition was calculated on a day within the exponential phase of growth."}, "wild-type T. gondii": {"system": "wild-type T. gondii", "experiment": "wild-type T. gondii fluorescence growth assay", "type": "cell-based", "conditions": "Toxoplasma gondii"}, "T. gondii-ΔHXGPRT": {"system": "T. gondii-ΔHXGPRT", "experiment": "T. gondii-ΔHXGPRT fluorescence growth assay", "type": "cell-based", "conditions": "Toxoplasma gondii, read-out: EC50 T. gondii-ΔHXGPRT growth"}, "[1]": {"molecular_target": "CpIMPDH, HpIMPDH, BbIMPDH, SpIMPDH, EcIMPDH and TfIMPDH"}, "C. parvum [2]": {"system": "C. parvum", "experiment": "high content imaging C. parvum growth assay", "type": "cell-based, Cryptosporidium parvum", "text": "FIG. 58 depicts an overview and validation of the high content imaging C. parvum growth assay. A, schematic representation of differential labelling of parasite and host. B, detail of an exemplary micrograph obtained through the screening routine. Numbers indicate object identifies after segmentation analysis. […] For panel D, the ratio of the number of FITC-VVL labelled C. parvum parasites to DAPI labelled HCT-8 host cell nuclei was used to standardize each well and percent C. parvum growth (solid line) was normalized to parasites receiving DMSO alone. […] Paromomycin in addition to reducing parasite number also reduces the average size of the parasite (dashed line). The mean parasite area was measured per well for each treatment in triplicate. The percent area was then calculated by normalizing to the mean area of parasites receiving DMSO alone.\nA direct and efficient assay of Cryptosporidium proliferation was also needed. Fluorescent Vicia villosa lectin (VVL) has been used previously to score C. parvum growth by fluorescence microscopy. VVL binds with high specificity to the C. parvum parasite, labelling sporozoites, intracellular stages, the inner oocyst wall, but not the outer oocyst wall. To accommodate the increasing number of compounds entering the SAR pipeline, we adapted the FITC-VVL immunofluorescence assay to a 96-well plate format and developed an automated imaging and analysis pipeline. […] Plates are fixed, permeabilized and stained with FITC-VVL and DAPI to numerate parasites and host cells, respectively. Using a spinning disc microscope, we imaged a […] of each well, providing a robust sample typically consisting of ˜6000 host cells and ˜2000 parasite stages. The instrument is programmed to automatically move from well to well, focus and acquire […] deep image stacks for the entire plate. A series of automated image compression, manipulation, and object-finding algorithms was optimized for the recognition of host cells and parasites using the DAPI and FITC channels. […]"}, "C. parvum [3]": {"system": "C. parvum", "conditions": "read-out: reported EC50 C. parvum growth (previous studies); cited from earlier work"}, "[4]": {"system": "primary human, mouse, rat, and dog lymphocytes", "conditions": "cited from earlier work"}, "[5]": {"molecular_target": "T1, recombinant C. parvum IMPDH (Cryptosporidium parvum, UniProt Q8T6T2)", "T1 construct": "made in house; host or cells: bacteria (guaB strains of E. coli)", "T1 sequence (Q8T6T2 1-400)": "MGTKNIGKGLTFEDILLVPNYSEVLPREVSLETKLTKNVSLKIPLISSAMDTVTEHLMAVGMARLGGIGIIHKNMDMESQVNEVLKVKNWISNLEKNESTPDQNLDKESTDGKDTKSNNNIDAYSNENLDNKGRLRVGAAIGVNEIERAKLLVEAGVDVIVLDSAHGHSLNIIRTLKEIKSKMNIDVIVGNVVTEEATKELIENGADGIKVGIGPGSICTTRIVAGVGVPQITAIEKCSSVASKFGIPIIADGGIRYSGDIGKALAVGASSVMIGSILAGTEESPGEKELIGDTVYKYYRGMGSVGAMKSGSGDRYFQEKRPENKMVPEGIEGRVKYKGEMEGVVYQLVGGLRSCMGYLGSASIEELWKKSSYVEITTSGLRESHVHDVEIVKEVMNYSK", "experiment": "C. parvum IMPDH inhibition (NADH production)", "type": "biochemical", "method": "Recombinant C. parvum IMPDH was expressed in bacteria and purified as described previously [N. N. Umejiego et al., J Biol Chem 279, 40320-40327 (2004)].\nInhibitors at varying concentrations (25 pM-5 μM) were incubated with 10 nM C. parvum in assay buffer for 10 min at room temperature. The reaction was initiated by the addition of NAD and IMP for final concentrations of 300 μM and 150 μM, respectively. Selectivity was measured against human type II and T. foetus IMPDH at 25° C. in assay buffer. The former was assayed in the presence of 300 μM NAD 40 μM IMP and 160 nM human type II IMPDH, and the latter in the presence of 300 μM NAD 20 μM IMP and 28 nM T. foetus IMPDH. The production of NADH was monitored spectrophotometrically at 340 nm (=6.22 mM^−1 cm^−1) using a Hitachi U-2000 spectrophotometer.\nIC50 values were calculated for each inhibitor according to the following equation: υi=υo/(1+[I]/IC50), using the SigmaPlot program (SPSS, Inc.).\nThe CpIMPDH inhibitory activity of the compounds was assessed by monitoring the production of NADH by fluorescence (FIG. 55). […]\nEvaluation of Cp-IMPDH inhibitory activity for the various prepared compounds was conducted utilizing an assay measuring the conversion of IMP to XMP by monitoring the production of NADH by fluorescence emission in the presence of varying inhibitor concentrations. […]"}, "[6]": {"conditions": "read-out: intrinsic Ki (adjusted for competition from the mobile flap), range over IMPDHs"}}, "note": "Where two headings read alike, the source gives them in different places.", "data": [{"smiles": "CC(Oc1ccnc2ccccc12)c1cn(-c2ccc(Cl)c(Cl)c2)nn1", "note": "(stereo not drawn) [A90]", "values": [{"measurement": "selectivity for T. gondii-CpIMPDH parasite over wild-type T. gondii", "setting": "T. gondii-CpIMPDH", "result": "little selectivity"}, {"measurement": "host cell (HCT-8) growth effect, in words", "setting": "HCT-8 cells", "result": "do not inhibit host cell growth"}]}, {"smiles": "COc1c(C)c2c(c(O)c1C/C=C(\\C)CCC(=O)O)C(=O)OC2", "note": "[MPA, mycophenolic acid]", "values": [{"measurement": "EC50", "setting": "T. gondii-CpIMPDH; Toxoplasma gondii, read-out: EC50 T. gondii-CpIMPDH growth", "result": "> 65", "unit": "µM"}, {"measurement": "EC50", "setting": "wild-type T. gondii; media with xanthine (0.33 mM), read-out: EC50 wild-type T. gondii growth, xanthine supplemented", "result": "≥ 78", "unit": "µM"}, {"measurement": "EC50", "setting": "wild-type T. gondii; read-out: EC50 wild-type T. gondii growth", "result": 2.6, "unit": "µM"}, {"measurement": "EC50", "setting": "T. gondii-ΔHXGPRT", "result": 0.29, "unit": "µM"}]}, {"smiles": "Nc1ncnc2c1ncn2[C@@H]1O[C@H](COP(=O)(O)OP(=O)(O)O)[C@@H](O)[C@H]1O", "note": "[ADP]", "values": [{"measurement": "Ki", "setting": "[1]; [6]", "result": "200 to 9000", "unit": "µM"}]}, {"smiles": "CC(Oc1ccc(Cl)c2ccccc12)c1cn(-c2ccc(Cl)cc2)nn1", "note": "(stereo not drawn) [A82]", "values": [{"measurement": "selectivity for T. gondii-CpIMPDH parasite over wild-type T. gondii", "setting": "T. gondii-CpIMPDH", "result": "little selectivity"}, {"measurement": "host cell (HCT-8) growth effect, in words", "setting": "HCT-8 cells", "result": "do not inhibit host cell growth"}]}, {"smiles": "CCCC(=O)[O-].[Na+]", "note": "[Sodium butyrate, reference compound]", "values": [{"measurement": "host cell (HCT-8) growth effect, in words", "setting": "HCT-8 cells; human", "result": "inhibit HCT-8 growth in a dose-dependent manner"}]}, {"smiles": "NC[C@@H]1O[C@H](O[C@H]2[C@@H](O)[C@H](O[C@@H]3[C@@H](O)[C@H](N)C[C@H](N)[C@H]3O[C@H]3O[C@H](CO)[C@@H](O)[C@H](O)[C@H]3N)O[C@@H]2CO)[C@H](N)[C@@H](O)[C@@H]1O", "note": "[paromomycin]", "values": [{"measurement": "mean parasite area, in words", "setting": "C. parvum [2]", "result": "significantly reduce the mean parasite area in a dose responsive manner"}, {"measurement": "EC50", "setting": "C. parvum [2]; Cryptosporidium parvum, in HCT-8 host cells", "result": 97, "unit": "µM"}, {"measurement": "reduction in parasite number", "setting": "C. parvum [2]; very high concentrations", "result": "~70", "unit": "%"}, {"measurement": "host cell (HCT-8) growth effect, in words", "setting": "HCT-8 cells", "result": "negligible effects on the growth of these cells"}, {"measurement": "EC50", "setting": "C. parvum [3]", "result": "65 to 130", "unit": "µM"}]}, {"smiles": "COc1cc(NC(=O)Nc2cccc(CNC(=O)O[C@H]3CCOC3)c2)ccc1-c1cnco1", "note": "[merimepodib]", "values": [{"measurement": "concentration inhibiting lymphocyte proliferation", "setting": "[4]", "result": "~100", "unit": "nM"}]}, {"smiles": "O=C(Nc1ccc(Cl)cc1)C(Oc1cccc2ccccc12)c1ccccc1", "note": "(stereo not drawn) [A66]", "values": [{"measurement": "selective block of T. gondii-CpIMPDH growth, in words", "setting": "T. gondii-CpIMPDH", "result": "none of these compounds selectively blocked the growth"}, {"measurement": "CpIMPDH inhibition, result in words", "setting": "[5]", "result": "do not inhibit CpIMPDH in vitro"}]}, {"smiles": "C[C@@H](Oc1ccnc2ccccc12)c1cn(-c2ccc(Cl)c(Cl)c2)nn1", "note": "[A105]", "values": [{"measurement": "selectivity for T. gondii-CpIMPDH parasite over wild-type T. gondii", "setting": "T. gondii-CpIMPDH", "result": "little selectivity"}, {"measurement": "host cell (HCT-8) growth effect, in words", "setting": "HCT-8 cells", "result": "do not inhibit host cell growth"}]}, {"smiles": "C[C@@H](Oc1cc[n+]([O-])c2ccccc12)c1cn(-c2ccc(Cl)cc2)nn1", "note": "[A110]", "values": [{"measurement": "host cell (HCT-8) growth effect, in words", "setting": "HCT-8 cells", "result": "negligible effects on host cell growth"}]}, {"smiles": "NC(=O)c1csc([C@@H]2O[C@H](CO)[C@@H](O)[C@H]2O)n1", "note": "[Tiazofurin, tiazofurin]", "values": [{"measurement": "Ki", "setting": "[1]; read-out: Ki (observed), range over prokaryotic IMPDHs", "result": "1000 to 69000", "unit": "µM"}, {"measurement": "Ki", "setting": "[1]; [6]", "result": "300 to 700", "unit": "µM"}]}, {"smiles": "CC(Oc1ccnc2ccccc12)C(=O)Nc1ccc(Cl)cc1", "note": "(stereo not drawn) [Compound 114, N-(4-chlorophenyl)-2-[[4-quinolinyl]oxy]propanamide]", "values": [{"measurement": "melting point", "result": "170 to 172", "unit": "°C"}]}]}
